Laboratory results: ChEMBL document CHEMBL1201862, “PubChem BioAssay data set” (2004)
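Exposure lasted 48 hours, with cells grown in 96-well plates and compounds tested at five concentrations. Here, GI50 denotes the concentration required for 50% inhibition of growth.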 Active and inactive are the calls of the source. No stated cut-off is given here; in the data, active = GI50 up to about 1.1 µM and inactive = higher.

How the values were obtained:
Test in all cases: NCI anticancer screen, dose series, 48 h
BT-549 = tested on: BT-549
CAKI-1 = tested on: CAKI-1
T47D = tested on: T47D
K562 = tested on: K562
A498 = tested on: A498
UO-31 = tested on: UO-31
MDA-MB-435 = tested on: MDA-MB-435
MOLT-4 = tested on: MOLT-4
HOP-62 = tested on: HOP-62
LOX IMVI = tested on: LOX IMVI
HCC 2998 = tested on: HCC 2998
MDA-MB-231 = tested on: MDA-MB-231
HCT-116 = tested on: HCT-116
COLO 205 = tested on: COLO 205
UACC-62 = tested on: UACC-62
NCI-H23 = tested on: NCI-H23
PC-3 = tested on: PC-3
MCF7 = tested on: MCF7
SNB-19 = tested on: SNB-19
NCI-H460 = tested on: NCI-H460

SMILES | GI50 (BT-549) | GI50 (CAKI-1) | GI50 (T47D) | GI50 (K562) | GI50 (A498) | GI50 (UO-31) | GI50 (MDA-MB-435) | GI50 (MOLT-4) | GI50 (HOP-62) | GI50 (LOX IMVI) | GI50 (HCC 2998) | GI50 (MDA-MB-231) | GI50 (HCT-116) | GI50 (COLO 205) | GI50 (UACC-62) | GI50 (NCI-H23) | GI50 (PC-3) | GI50 (MCF7) | GI50 (SNB-19) | GI50 (NCI-H460)
O=C1C2CC=CCC2C(=O)N1n1c(Cc2ccc(Cl)cc2)n[nH]c1=O (stereo not given) | > 100 µM (inactive) | > 100 µM (inactive) | > 100 µM (inactive) | > 100 µM (inactive) | > 100 µM (inactive) | > 100 µM (inactive) | > 100 µM (inactive) | > 100 µM (inactive) | > 100 µM (inactive) | > 100 µM (inactive) | > 100 µM (inactive) | > 100 µM (inactive) | > 100 µM (inactive) | > 100 µM (inactive) | > 100 µM (inactive) | > 100 µM (inactive) | > 100 µM (inactive) | > 100 µM (inactive) | – | –
O=C(O)C/C(=C\c1ccco1)C(=O)O | > 100 µM (inactive) | > 100 µM (inactive) | > 100 µM (inactive) | > 100 µM (inactive) | > 100 µM (inactive) | > 100 µM (inactive) | > 100 µM (inactive) | > 100 µM (inactive) | > 100 µM (inactive) | > 100 µM (inactive) | – | > 100 µM (inactive) | > 100 µM (inactive) | > 100 µM (inactive) | > 100 µM (inactive) | > 100 µM (inactive) | > 100 µM (inactive) | > 100 µM (inactive) | > 100 µM (inactive) | –
Cc1nc(-c2cc3cc([N+](=O)[O-])ccc3oc2=O)cs1 | > 100 µM (inactive) | > 100 µM (inactive) | > 100 µM (inactive) | 71.8 µM (inactive) | – | > 100 µM (inactive) | > 100 µM (inactive) | > 100 µM (inactive) | > 100 µM (inactive) | > 100 µM (inactive) | > 100 µM (inactive) | 80.7 µM (inactive) | > 100 µM (inactive) | > 100 µM (inactive) | > 100 µM (inactive) | – | > 100 µM (inactive) | > 100 µM (inactive) | > 100 µM (inactive) | > 100 µM (inactive)
c1ccc2cc(NCNc3ccc4ccccc4c3)ccc2c1 | 24.9 µM (inactive) | 17.9 µM (inactive) | 15.7 µM (inactive) | 0.951 µM (active) | 19.9 µM (inactive) | 13.7 µM (inactive) | 1.78 µM (inactive) | 0.785 µM (active) | 19.5 µM (inactive) | 10.8 µM (inactive) | – | 2.51 µM (inactive) | 16.7 µM (inactive) | 18.8 µM (inactive) | 14.7 µM (inactive) | 12.2 µM (inactive) | 15.5 µM (inactive) | 11.8 µM (inactive) | 28.1 µM (inactive) | 13.4 µM (inactive)
COC(=NCCC1=CCCCC1)OC | > 100 µM (inactive) | > 100 µM (inactive) | 32.9 µM (inactive) | 36 µM (inactive) | > 100 µM (inactive) | 53 µM (inactive) | 71.6 µM (inactive) | 52.2 µM (inactive) | > 100 µM (inactive) | – | 22 µM (inactive) | > 100 µM (inactive) | 32.8 µM (inactive) | 16.3 µM (inactive) | > 100 µM (inactive) | 58.6 µM (inactive) | 85.7 µM (inactive) | 47.6 µM (inactive) | > 100 µM (inactive) | 57.1 µM (inactive)
Cc1ccc(-c2n[nH]c(=O)n2NC(=O)c2ccccc2C(=O)O)cc1 | > 100 µM (inactive) | > 100 µM (inactive) | 72.8 µM (inactive) | > 100 µM (inactive) | – | > 100 µM (inactive) | > 100 µM (inactive) | > 100 µM (inactive) | > 100 µM (inactive) | > 100 µM (inactive) | > 100 µM (inactive) | > 100 µM (inactive) | > 100 µM (inactive) | – | > 100 µM (inactive) | > 100 µM (inactive) | > 100 µM (inactive) | > 100 µM (inactive) | > 100 µM (inactive) | > 100 µM (inactive)
CC1=NN(C(=O)CC(=O)Nc2ccc(C)cc2)C(=O)C1/N=N/c1ccc(C(=O)O)cc1 (stereo not given) | > 100 µM (inactive) | > 100 µM (inactive) | > 100 µM (inactive) | > 100 µM (inactive) | > 100 µM (inactive) | 55.8 µM (inactive) | > 100 µM (inactive) | – | > 100 µM (inactive) | 69.3 µM (inactive) | > 100 µM (inactive) | > 100 µM (inactive) | > 100 µM (inactive) | > 100 µM (inactive) | > 100 µM (inactive) | > 100 µM (inactive) | > 100 µM (inactive) | > 100 µM (inactive) | > 100 µM (inactive) | –
COC(=O)C1=C(C)NC(C)=C(C(=O)OC)C1c1ccc(/[N+]([O-])=C/c2ccccc2)cc1 | 18.8 µM (inactive) | 18.7 µM (inactive) | 19.8 µM (inactive) | 23.6 µM (inactive) | – | 37.1 µM (inactive) | 30.4 µM (inactive) | 24.1 µM (inactive) | 83.2 µM (inactive) | 45 µM (inactive) | > 100 µM (inactive) | 41.1 µM (inactive) | 16.4 µM (inactive) | 19 µM (inactive) | 37.6 µM (inactive) | 42.5 µM (inactive) | 64.1 µM (inactive) | 16.7 µM (inactive) | 94.2 µM (inactive) | 66.8 µM (inactive)
O=C(O)Cn1cc([N+](=O)[O-])c(=O)c2ccccc21 | > 100 µM (inactive) | > 100 µM (inactive) | 18.8 µM (inactive) | > 100 µM (inactive) | > 100 µM (inactive) | > 100 µM (inactive) | > 100 µM (inactive) | > 100 µM (inactive) | > 100 µM (inactive) | – | > 100 µM (inactive) | 18.8 µM (inactive) | > 100 µM (inactive) | 19.5 µM (inactive) | > 100 µM (inactive) | > 100 µM (inactive) | > 100 µM (inactive) | > 100 µM (inactive) | > 100 µM (inactive) | > 100 µM (inactive)
COC(=O)NC(C(F)(F)F)(C(F)(F)F)P1(=O)OCCCO1 | 22.1 µM (inactive) | – | 20.4 µM (inactive) | 22.9 µM (inactive) | 17 µM (inactive) | 18.3 µM (inactive) | 17.2 µM (inactive) | 17.1 µM (inactive) | 21.6 µM (inactive) | 16.4 µM (inactive) | – | 25.3 µM (inactive) | 23.2 µM (inactive) | 23 µM (inactive) | 15 µM (inactive) | 20.2 µM (inactive) | 25.4 µM (inactive) | 31.3 µM (inactive) | 25.5 µM (inactive) | 30.2 µM (inactive)
O=C1Nc2ccccc2S/C1=C\c1ccc(C(F)(F)F)cc1 | > 100 µM (inactive) | 4.59 µM (inactive) | > 100 µM (inactive) | > 100 µM (inactive) | > 100 µM (inactive) | 94 µM (inactive) | > 100 µM (inactive) | > 100 µM (inactive) | > 100 µM (inactive) | > 100 µM (inactive) | – | > 100 µM (inactive) | > 100 µM (inactive) | > 100 µM (inactive) | > 100 µM (inactive) | – | > 100 µM (inactive) | > 100 µM (inactive) | > 100 µM (inactive) | > 100 µM (inactive)
O=C1C=CC(=O)N1n1c(-c2ccccc2)n[nH]c1=O | > 100 µM (inactive) | > 100 µM (inactive) | > 100 µM (inactive) | > 100 µM (inactive) | > 100 µM (inactive) | – | > 100 µM (inactive) | > 100 µM (inactive) | > 100 µM (inactive) | – | > 100 µM (inactive) | > 100 µM (inactive) | > 100 µM (inactive) | > 100 µM (inactive) | > 100 µM (inactive) | > 100 µM (inactive) | > 100 µM (inactive) | > 100 µM (inactive) | – | > 100 µM (inactive)
N#CCCN(CCC#N)c1ccc(C(=N/c2ccc(F)cc2)/N=N/c2ccc(Cl)cc2)cc1 | > 100 µM (inactive) | > 100 µM (inactive) | > 100 µM (inactive) | > 100 µM (inactive) | > 100 µM (inactive) | > 100 µM (inactive) | > 100 µM (inactive) | > 100 µM (inactive) | > 100 µM (inactive) | – | > 100 µM (inactive) | > 100 µM (inactive) | > 100 µM (inactive) | > 100 µM (inactive) | > 100 µM (inactive) | > 100 µM (inactive) | > 100 µM (inactive) | > 100 µM (inactive) | > 100 µM (inactive) | > 100 µM (inactive)
COc1ccc2c(c1)OCC1(O)Cc3ccccc3OC21 (stereo not given) | > 100 µM (inactive) | > 100 µM (inactive) | > 100 µM (inactive) | > 100 µM (inactive) | > 100 µM (inactive) | > 100 µM (inactive) | > 100 µM (inactive) | 78.9 µM (inactive) | > 100 µM (inactive) | > 100 µM (inactive) | > 100 µM (inactive) | > 100 µM (inactive) | > 100 µM (inactive) | > 100 µM (inactive) | > 100 µM (inactive) | > 100 µM (inactive) | > 100 µM (inactive) | > 100 µM (inactive) | – | –
COc1ccccc1/C=C1\Sc2scc(-c3ccc(O)c(O)c3)[n+]2C1=O | 17.8 µM (inactive) | 15.1 µM (inactive) | 16.3 µM (inactive) | 9.51 µM (inactive) | – | 18.7 µM (inactive) | 27.2 µM (inactive) | 13.9 µM (inactive) | 29.7 µM (inactive) | 18 µM (inactive) | 16.6 µM (inactive) | 20 µM (inactive) | 16.8 µM (inactive) | 19.6 µM (inactive) | 16.7 µM (inactive) | 26.6 µM (inactive) | 28.2 µM (inactive) | 25.5 µM (inactive) | 35.8 µM (inactive) | 18.8 µM (inactive)
